In patent US20260325533A1, “CDK INHIBITOR COMPOUNDS” (ALEKSIA THERAPEUTICS, INC., priority 2023, published 2026):
Where two headings read alike, the source gives them in different places. Each block holds one compound with its values, some of them ahead of it.

Experiments:
Assay type in all cases: biochemical
CDK2/CCNE1 = CDK2/CCNE1 (Homo sapiens, UniProt P24941); experiment: CDK2 homogeneous time-resolved fluorescence (HTRF) kinase assay
How it was run: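 CDK2/CCNE1 (3 nM) preincubated 20 min at 23 °C with compound, then reacted 60 min at 23 °C with 1 mM ATP and 50 nM ULight-4E-BP1 (Thr37/46) peptide. Stopped with EDTA, phospho-peptide detected by Eu-anti-phospho antibody (665 nm or 665/615 ratio). IC50 from 11-point half-log titrations typically starting at 10 μM.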

CDK1/CCNB1 = CDK1/CCNB1 (Homo sapiens, UniProt P06493); experiment: CDK1 homogeneous time-resolved fluorescence (HTRF) kinase assay
Chain of CDK1/CCNB1 (P06493 whole entry): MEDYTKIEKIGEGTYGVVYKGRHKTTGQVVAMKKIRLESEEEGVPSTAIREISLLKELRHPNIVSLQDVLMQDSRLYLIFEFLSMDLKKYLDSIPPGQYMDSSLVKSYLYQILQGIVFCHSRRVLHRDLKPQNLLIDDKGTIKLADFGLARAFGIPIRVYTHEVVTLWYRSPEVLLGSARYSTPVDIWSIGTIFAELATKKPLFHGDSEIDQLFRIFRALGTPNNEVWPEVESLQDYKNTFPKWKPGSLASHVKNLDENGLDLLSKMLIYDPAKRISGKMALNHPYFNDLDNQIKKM
Chain of CDK1/CCNB1 (P14635 whole entry partner): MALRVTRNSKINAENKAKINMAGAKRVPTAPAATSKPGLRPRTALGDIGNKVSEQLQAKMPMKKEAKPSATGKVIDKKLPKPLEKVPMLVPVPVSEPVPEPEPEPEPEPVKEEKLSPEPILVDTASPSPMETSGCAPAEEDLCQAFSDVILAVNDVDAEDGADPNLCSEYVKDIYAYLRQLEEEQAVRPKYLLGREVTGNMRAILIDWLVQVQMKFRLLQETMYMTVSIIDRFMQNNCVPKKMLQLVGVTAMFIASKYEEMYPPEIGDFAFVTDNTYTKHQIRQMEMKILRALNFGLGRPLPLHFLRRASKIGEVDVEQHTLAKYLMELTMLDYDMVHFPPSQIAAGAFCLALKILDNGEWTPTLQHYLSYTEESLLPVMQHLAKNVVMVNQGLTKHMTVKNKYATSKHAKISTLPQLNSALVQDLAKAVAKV
How it was run: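 HTRF assay with 0.5 nM CDK1/CCNB1, 1 mM ATP, 50 nM ULight-eIF4E-BP1 (Thr37/46) peptide; compound preincubated 20 min, reaction 60 min at 23 °C, EDTA stop, Eu-anti-phospho antibody detection. 11-point half-log titration from 10 μM, 1% DMSO; IC50 from 665 nm or 665/615 signal.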

CDK4/CCND3 = CDK4/CCND3 (Homo sapiens, UniProt P11802); experiment: CDK4 homogeneous time-resolved fluorescence (HTRF) kinase assay
Chain of CDK4/CCND3 (P11802 whole entry): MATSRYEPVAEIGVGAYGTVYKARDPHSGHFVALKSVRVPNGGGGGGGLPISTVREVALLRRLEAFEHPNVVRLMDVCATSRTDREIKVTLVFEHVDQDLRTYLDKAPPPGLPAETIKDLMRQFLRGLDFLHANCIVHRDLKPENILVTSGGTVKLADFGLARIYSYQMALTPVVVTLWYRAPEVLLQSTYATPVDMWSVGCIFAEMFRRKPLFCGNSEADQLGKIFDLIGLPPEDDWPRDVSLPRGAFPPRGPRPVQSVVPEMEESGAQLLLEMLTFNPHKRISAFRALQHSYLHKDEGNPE
Chain of CDK4/CCND3 (P30281 whole entry partner): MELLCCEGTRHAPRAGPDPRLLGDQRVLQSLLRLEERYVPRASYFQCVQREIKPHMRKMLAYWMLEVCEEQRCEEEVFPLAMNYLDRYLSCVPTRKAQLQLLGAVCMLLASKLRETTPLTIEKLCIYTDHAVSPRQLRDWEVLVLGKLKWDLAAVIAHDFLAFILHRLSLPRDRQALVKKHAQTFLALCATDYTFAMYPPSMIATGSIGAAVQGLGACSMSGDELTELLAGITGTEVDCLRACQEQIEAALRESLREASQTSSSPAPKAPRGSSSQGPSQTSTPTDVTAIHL
How it was run: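 Inhibition of CDK4/CCND3 (1.5 nM) was measured at high ATP (1 mM) using 50 nM ULight-labelled 4E-BP1 Thr37/46 peptide; detection used 2 nM europium anti-phospho antibody after EDTA quench. IC50 values came from 11-point half-log titrations typically starting at 10 μM.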

CDK6/CCND1 = CDK6/CCND1 (Homo sapiens, UniProt Q00534); experiment: CDK6 homogeneous time-resolved fluorescence (HTRF) kinase assay
Chain of CDK6/CCND1 (Q00534 whole entry): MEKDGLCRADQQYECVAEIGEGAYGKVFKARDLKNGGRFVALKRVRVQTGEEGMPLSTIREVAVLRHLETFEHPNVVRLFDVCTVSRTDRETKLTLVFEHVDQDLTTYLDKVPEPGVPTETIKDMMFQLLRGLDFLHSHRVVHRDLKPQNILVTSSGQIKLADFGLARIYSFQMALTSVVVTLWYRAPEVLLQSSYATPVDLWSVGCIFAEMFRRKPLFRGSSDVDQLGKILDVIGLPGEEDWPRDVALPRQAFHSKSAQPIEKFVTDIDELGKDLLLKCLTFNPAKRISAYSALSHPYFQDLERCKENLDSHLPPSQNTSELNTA
Chain of CDK6/CCND1 (P24385 whole entry partner): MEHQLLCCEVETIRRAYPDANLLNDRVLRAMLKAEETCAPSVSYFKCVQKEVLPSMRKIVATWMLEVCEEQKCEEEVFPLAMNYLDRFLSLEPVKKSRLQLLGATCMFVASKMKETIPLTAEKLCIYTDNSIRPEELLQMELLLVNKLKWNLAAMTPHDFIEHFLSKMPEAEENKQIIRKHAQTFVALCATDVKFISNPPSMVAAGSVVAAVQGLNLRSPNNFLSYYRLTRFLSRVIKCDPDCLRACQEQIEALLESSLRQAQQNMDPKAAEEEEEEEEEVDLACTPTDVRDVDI
How it was run: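 1 nM enzyme, 1 mM ATP, 50 nM ULight-4E-BP1 (Thr37/46) peptide, 1% DMSO; 20 min compound preincubation, 60 min reaction, 23 °C. EDTA stop, 2 nM Eu-anti-phospho-4E-BP1 antibody 60 min. TR-FRET 665 nm (or 665/615 ratio); IC50 from 11-point half-log titration, top 10 μM.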

[1] = <25 nM, CDK2/CCNE, read-out: CDK2/CCNE IC50, <25 nM
[2] = 25-250 nM, CDK1/CCNB, read-out: CDK1/CCNB IC50, 25-250 nM
[3] = 25-250 nM, CDK6/CCND, 1 mM ATP, read-out: CDK6/CCND IC50, 25-250 nM
[4] = CDK2/CCNE, x = IC50 <25 nM, read-out: CDK2/CCNE IC50 (<25 nM)
[5] = CDK1/CCNB, x = IC50 25-250 nM, read-out: CDK1/CCNB IC50 (25-250 nM)
[6] = CDK4/CCND, x = IC50 >250 nM, read-out: CDK4/CCND IC50 (>250 nM column)
[7] = CDK6/CCND, x = IC50 >250 nM, read-out: CDK6/CCND IC50 (>250 nM column)
[8] = CDK2/CCNE, x = IC50 25-250 nM, read-out: CDK2/CCNE IC50 (25-250 nM)
[9] = CDK1/CCNB, x = IC50 >250 nM, read-out: CDK1/CCNB IC50 (>250 nM column)
[10] = CDK1/CCNB, >250 nM marked x, read-out: CDK1/CCNB IC50 >250 nM
[11] = CDK6/CCND, >250 nM marked x, read-out: CDK6/CCND IC50 >250 nM
[12] = >250 nM, CDK1/CCNB, read-out: CDK1/CCNB IC50 >250 nM
[13] = >250 nM, CDK4/CCND, read-out: CDK4/CCND IC50, >250 nM
[14] = >250 nM, CDK6/CCND, 1 mM ATP, read-out: CDK6/CCND IC50, >250 nM
[15] = CDK2/CCNE, <25 nM, read-out: CDK2/CCNE IC50 <25 nM
[16] = CDK4/CCND, 25-250 nM marked x, read-out: CDK4/CCND IC50 25-250 nM

IC50 (CDK2/CCNE1; [1]): < 25 nM
IC50 (CDK1/CCNB1; [2]): 25 to 250 nM
IC50 (CDK4/CCND3; 25-250 nM, CDK4/CCND, read-out: CDK4/CCND IC50, 25-250 nM): 25 to 250 nM
IC50 (CDK6/CCND1; [3]): 25 to 250 nM
Structure (SMILES): Cc1c(-c2nccc3cnc(Nc4ccc(S(=O)(=O)NC5CCN(C)CC5)cc4)cc23)ccc2c1cnn2CC(C)(C)O [Ex 763, 4-((5-(1-(2-hydroxy-2-methylpropyl)-4-methyl-1H-indazol-5-yl)-2,6-naphthyridin-3-yl)amino)-N-(1-methylpiperidin-4-yl)benzenesulfonamide]

IC50 (CDK2/CCNE1; 3 nM CDK2/CCNE1, 1 mM ATP, read-out: CDK2/CCNE IC50 >250 nM): > 250 nM
IC50 (CDK1/CCNB1; 0.5 nM CDK1/CCNB1, 1 mM ATP, read-out: CDK1/CCNB IC50 >250 nM): > 250 nM
IC50 (CDK4/CCND3; 1.5 nM CDK4/CCND3, 1 mM ATP, read-out: CDK4/CCND IC50 >250 nM): > 250 nM
IC50 (CDK6/CCND1; 1 nM CDK6/CCND1, 1 mM ATP, read-out: CDK6/CCND IC50 >250 nM): > 250 nM
Structure (SMILES): Cc1cc(N2CCC(C#N)CC2)c2nc(Nc3ccc(S(C)(=O)=O)cc3)ncc2c1 [Example 954, 1-(6-methyl-2-((4-(methylsulfonyl)phenyl)amino)quinazolin-8-yl)piperidine-4-carbonitrile]

IC50 (CDK2/CCNE1; [8]): 25 to 250 nM
IC50 (CDK1/CCNB1; [9]): > 250 nM
IC50 (CDK4/CCND3; [6]): > 250 nM
IC50 (CDK6/CCND1; [7]): > 250 nM
Structure (SMILES): CS(=O)(=O)c1ccc(Nc2cc3c(C#Cc4cnc(N)cn4)nccc3cn2)cc1 [Ex 622, 5-((5-aminopyrazin-2-yl)ethynyl)-N-(4-(methylsulfonyl)phenyl)-2,6-naphthyridin-3-amine]

IC50 (CDK2/CCNE1; [1]): < 25 nM
IC50 (CDK1/CCNB1; [12]): > 250 nM
IC50 (CDK4/CCND3; [13]): > 250 nM
IC50 (CDK6/CCND1; [14]): > 250 nM
Structure (SMILES): COc1ccc(C(=O)N2CCC(Nc3cc4c(-c5ccc6c(cnn6CC(C)(C)O)c5C)nccc4cn3)C2)cc1 (racemic) [Ex 884, (3-((5-(1-(2-hydroxy-2-methylpropyl)-4-methyl-1H-indazol-5-yl)-2,6-naphthyridin-3-yl)amino)pyrrolidin-1-yl)(4-methoxyphenyl)methanone]

IC50 (CDK2/CCNE1; [15]): < 25 nM
IC50 (CDK1/CCNB1; CDK1/CCNB, 25-250 nM marked x, read-out: CDK1/CCNB IC50 25-250 nM): 25 to 250 nM
IC50 (CDK4/CCND3; [16]): 25 to 250 nM
IC50 (CDK6/CCND1; [11]): > 250 nM
Structure (SMILES): CC(C)S(=N)(=O)c1ccc(Nc2cc3c(C#Cc4ccc5c(c4)NC(=O)C5(C)CO)nccc3cn2)cc1 (single isomer, unassigned) [Example 328, 3-(hydroxymethyl)-3-methyl-6-((7-((4-(propan-2-ylsulfonimidoyl)phenyl)amino)-2,6-naphthyridin-1-yl)ethynyl)indolin-2-one]

IC50 (CDK2/CCNE1; 25-250 nM, CDK2/CCNE, read-out: CDK2/CCNE IC50, 25-250 nM): 25 to 250 nM
IC50 (CDK1/CCNB1; [12]): > 250 nM
IC50 (CDK4/CCND3; [13]): > 250 nM
IC50 (CDK6/CCND1; [14]): > 250 nM
Structure (SMILES): Cc1oncc1S(=O)(=O)Nc1ccc(Nc2cc3c(-c4ccc5c(cnn5CC(C)(C)O)c4C)nccc3cn2)cc1 [Ex 833, N-(4-((5-(1-(2-hydroxy-2-methylpropyl)-4-methyl-1H-indazol-5-yl)-2,6-naphthyridin-3-yl)amino)phenyl)-5-methylisoxazole-4-sulfonamide]

IC50 (CDK2/CCNE1; [1]): < 25 nM
IC50 (CDK1/CCNB1; [2]): 25 to 250 nM
IC50 (CDK4/CCND3; [13]): > 250 nM
IC50 (CDK6/CCND1; [3]): 25 to 250 nM
Structure (SMILES): Cc1c(-c2nccc3cnc(Nc4ccc(S(N)(=O)=O)cc4)cc23)ccc2c1cnn2CC(O)(C(F)(F)F)C(F)(F)F [Ex 726, 4-((5-(4-methyl-1-(3,3,3-trifluoro-2-hydroxy-2-(trifluoromethyl)propyl)-1H-indazol-5-yl)-2,6-naphthyridin-3-yl)amino)benzenesulfonamide]

IC50 (CDK2/CCNE1; >250 nM, CDK2/CCNE, read-out: CDK2/CCNE IC50, >250 nM): > 250 nM
IC50 (CDK1/CCNB1; [12]): > 250 nM
IC50 (CDK4/CCND3; [13]): > 250 nM
IC50 (CDK6/CCND1; [14]): > 250 nM
Structure (SMILES): CS(=O)(=O)c1ccc(Nc2cc3c(C#Cc4ccc(C(F)(F)F)nc4)nccc3cn2)cc1 [Ex 870, N-(4-(methylsulfonyl)phenyl)-5-((6-(trifluoromethyl)pyridin-3-yl)ethynyl)-2,6-naphthyridin-3-amine]

Continued, compound first:

Structure (SMILES): Nc1ncccc1C#Cc1nccc2cnc(Nc3ccc(S(=O)(=O)NC4CC4)cc3)cc12 [Ex 435, 4-((5-((2-aminopyridin-3-yl)ethynyl)-2,6-naphthyridin-3-yl)amino)-N-cyclopropylbenzenesulfonamide]
IC50 (CDK2/CCNE1; [4]): < 25 nM
IC50 (CDK1/CCNB1; [5]): 25 to 250 nM
IC50 (CDK4/CCND3; [6]): > 250 nM
IC50 (CDK6/CCND1; [7]): > 250 nM

Structure (SMILES): CS(=O)(=O)c1ccc(Nc2cc3c(C4CCN(C(=O)Nc5cccnc5)CC4)nccc3cn2)cc1 [Ex 198, 4-(7-((4-(methylsulfonyl)phenyl)amino)-2,6-naphthyridin-1-yl)-N-(pyridin-3-yl)piperidine-1-carboxamide]
IC50 (CDK2/CCNE1; CDK2/CCNE, >250 nM marked x, read-out: CDK2/CCNE IC50 >250 nM): > 250 nM
IC50 (CDK1/CCNB1; [10]): > 250 nM
IC50 (CDK4/CCND3; CDK4/CCND, >250 nM marked x, read-out: CDK4/CCND IC50 >250 nM): > 250 nM
IC50 (CDK6/CCND1; [11]): > 250 nM

Structure (SMILES): CC(C)(C#Cc1nccc2cnc(Nc3ccc(S(C)(=O)=O)cc3)cc12)CO [Ex 504, 2,2-dimethyl-4-(7-((4-(methylsulfonyl)phenyl)amino)-2,6-naphthyridin-1-yl)but-3-yn-1-ol]
IC50 (CDK2/CCNE1; [4]): < 25 nM
IC50 (CDK1/CCNB1; [5]): 25 to 250 nM
IC50 (CDK4/CCND3; CDK4/CCND, x = IC50 25-250 nM, read-out: CDK4/CCND IC50 (25-250 nM)): 25 to 250 nM
IC50 (CDK6/CCND1; CDK6/CCND, x = IC50 25-250 nM, read-out: CDK6/CCND IC50 (25-250 nM)): 25 to 250 nM

Structure (SMILES): CCS(=N)(=O)c1ccc(Nc2cc3c(C#Cc4ccc(=O)[nH]n4)nccc3cn2)cc1 (racemic) [Ex 485, 6-((7-((4-(ethylsulfonimidoyl)phenyl)amino)-2,6-naphthyridin-1-yl)ethynyl)pyridazin-3(2H)-one]
IC50 (CDK2/CCNE1; [4]): < 25 nM
IC50 (CDK1/CCNB1; [9]): > 250 nM
IC50 (CDK4/CCND3; [6]): > 250 nM
IC50 (CDK6/CCND1; [7]): > 250 nM

Structure (SMILES): Cn1cc(C#Cc2nccc3cnc(Nc4ccc(S(C)(=O)=O)cc4)cc23)ncc1=O [Ex 515, 1-methyl-5-((7-((4-(methylsulfonyl)phenyl)amino)-2,6-naphthyridin-1-yl)ethynyl)pyrazin-2(1H)-one]
IC50 (CDK2/CCNE1; [8]): 25 to 250 nM
IC50 (CDK1/CCNB1; [9]): > 250 nM
IC50 (CDK4/CCND3; [6]): > 250 nM
IC50 (CDK6/CCND1; [7]): > 250 nM

Structure (SMILES): CS(=O)(=O)c1ccc(Nc2cc3c(-c4ccc5[nH]ncc5c4Cl)nccc3cn2)cc1 [Ex 183, 5-(4-chloro-1H-indazol-5-yl)-N-(4-(methylsulfonyl)phenyl)-2,6-naphthyridin-3-amine]
IC50 (CDK2/CCNE1; [15]): < 25 nM
IC50 (CDK1/CCNB1; [10]): > 250 nM
IC50 (CDK4/CCND3; [16]): 25 to 250 nM
IC50 (CDK6/CCND1; [11]): > 250 nM

Structure (SMILES): CS(=O)(=O)c1ccc(Nc2cc3c(C#Cc4cccnc4N)nccc3cn2)cc1 [Ex 598, 5-((2-aminopyridin-3-yl)ethynyl)-N-(4-(methylsulfonyl)phenyl)-2,6-naphthyridin-3-amine]
IC50 (CDK2/CCNE1; [4]): < 25 nM
IC50 (CDK1/CCNB1; [9]): > 250 nM
IC50 (CDK4/CCND3; [6]): > 250 nM
IC50 (CDK6/CCND1; [7]): > 250 nM

Structure (SMILES): CS(=O)(=O)c1ccc(Nc2cc3c(C#Cc4cnn(CC(F)(F)F)c4)nccc3cn2)cc1 [Ex 550, N-(4-(methylsulfonyl)phenyl)-5-((1-(2,2,2-trifluoroethyl)-1H-pyrazol-4-yl)ethynyl)-2,6-naphthyridin-3-amine]
IC50 (CDK2/CCNE1; [8]): 25 to 250 nM
IC50 (CDK1/CCNB1; [9]): > 250 nM
IC50 (CDK4/CCND3; [6]): > 250 nM
IC50 (CDK6/CCND1; [7]): > 250 nM

Structure (SMILES): CS(=O)(=O)c1ccc(Nc2cc3c(C#Cc4cc(N)ncc4F)nccc3cn2)cc1 [Ex 557, 5-((2-amino-5-fluoropyridin-4-yl)ethynyl)-N-(4-(methylsulfonyl)phenyl)-2,6-naphthyridin-3-amine]
IC50 (CDK2/CCNE1; [4]): < 25 nM
IC50 (CDK1/CCNB1; [9]): > 250 nM
IC50 (CDK4/CCND3; [6]): > 250 nM
IC50 (CDK6/CCND1; [7]): > 250 nM
